Test results as given in PubChem BioAssay (NCI).
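Values below derive from 48-hour exposures of cells grown in 96-well plates, with endpoints linearly interpolated between the two concentrations bracketing the appropriate inhibition level. Abbreviation: GI50, concentration required for 50% inhibition of growth. At the TGI there is no net growth.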

Experiments:
Assay in all cases: NCI anticancer screen, dose series, 48 h
U251 CNS = tested on: U251 CNS
SF-268 CNS = tested on: SF-268 CNS
SK-OV-3 ovarian = tested on: SK-OV-3 ovarian
COLO 205 colon = tested on: COLO 205 colon
OVCAR-4 ovarian = tested on: OVCAR-4 ovarian
HOP-62 NSCLC = tested on: HOP-62 NSCLC
LOX IMVI melanoma = tested on: LOX IMVI melanoma
HCC-2998 colon = tested on: HCC-2998 colon
SW-620 colon = tested on: SW-620 colon
CCRF-CEM leukemia = tested on: CCRF-CEM leukemia
RPMI-8226 leukemia = tested on: RPMI-8226 leukemia
TK-10 renal = tested on: TK-10 renal
SNB-19 CNS = tested on: SNB-19 CNS
HL-60(TB) leukemia = tested on: HL-60(TB) leukemia
MOLT-4 leukemia = tested on: MOLT-4 leukemia
UO-31 renal = tested on: UO-31 renal
T-47D breast = tested on: T-47D breast
SN12C renal = tested on: SN12C renal
SK-MEL-2 melanoma = tested on: SK-MEL-2 melanoma
OVCAR-3 ovarian = tested on: OVCAR-3 ovarian
K-562 leukemia = tested on: K-562 leukemia
OVCAR-5 ovarian = tested on: OVCAR-5 ovarian
UACC-257 melanoma = tested on: UACC-257 melanoma
MDA-MB-468 breast = tested on: MDA-MB-468 breast
UACC-62 melanoma = tested on: UACC-62 melanoma
OVCAR-8 ovarian = tested on: OVCAR-8 ovarian
DU-145 prostate = tested on: DU-145 prostate
A549 NSCLC = tested on: A549 NSCLC
IGROV1 ovarian = tested on: IGROV1 ovarian
NCI-H460 lung = tested on: NCI-H460 lung
ACHN renal = tested on: ACHN renal
CAKI-1 renal = tested on: CAKI-1 renal
NCI-H226 lung = tested on: NCI-H226 lung
HOP-92 NSCLC = tested on: HOP-92 NSCLC
NCI/ADR-RES ovarian = tested on: NCI/ADR-RES ovarian
KM12 colon = tested on: KM12 colon
M14 melanoma = tested on: M14 melanoma
SK-MEL-5 melanoma = tested on: SK-MEL-5 melanoma
BT-549 breast = tested on: BT-549 breast
HT29 colon = tested on: HT29 colon
HS 578T breast = tested on: HS 578T breast
HCT-15 colon = tested on: HCT-15 colon
MDA-MB-231 breast = tested on: MDA-MB-231 breast
RXF 393 renal = tested on: RXF 393 renal
MDA-MB-435 = tested on: MDA-MB-435
SK-MEL-28 melanoma = tested on: SK-MEL-28 melanoma
MCF7 breast = tested on: MCF7 breast
SF-539 CNS = tested on: SF-539 CNS
HCT-116 colon = tested on: HCT-116 colon
EKVX NSCLC = tested on: EKVX NSCLC
NCI-H522 lung = tested on: NCI-H522 lung
A498 renal = tested on: A498 renal
NCI-H23 lung = tested on: NCI-H23 lung
PC-3 prostate = tested on: PC-3 prostate
786-0 renal = tested on: 786-0 renal
SR leukemia = tested on: SR leukemia
MALME-3M melanoma = tested on: MALME-3M melanoma
SF-295 CNS = tested on: SF-295 CNS
SNB-75 CNS = tested on: SNB-75 CNS

Structure (SMILES): O=C(Nc1ccc(-c2ccc3c(c2)NC(=O)/C3=C\c2ccc[nH]2)cc1)Nc1cccc(Cl)c1
- GI50 (U251 CNS): 2.98 µM
- TGI (U251 CNS): 11.6 µM
- GI50 (SF-268 CNS): 4.6 µM
- TGI (SF-268 CNS): 60.9 µM
- GI50 (SK-OV-3 ovarian): 3.43 µM
- TGI (SK-OV-3 ovarian): 14.4 µM
- GI50 (COLO 205 colon): 1.92 µM
- TGI (COLO 205 colon): 3.79 µM
- GI50 (OVCAR-4 ovarian): 1.76 µM
- TGI (OVCAR-4 ovarian): 9.71 µM
- GI50 (HOP-62 NSCLC): 1.99 µM
- TGI (HOP-62 NSCLC): 6.15 µM
- GI50 (LOX IMVI melanoma): 1.53 µM
- TGI (LOX IMVI melanoma): 3.39 µM
- GI50 (HCC-2998 colon): 1.78 µM
- TGI (HCC-2998 colon): 5.61 µM
- GI50 (SW-620 colon): 2.29 µM
- TGI (SW-620 colon): 11.7 µM
- GI50 (CCRF-CEM leukemia): 0.846 µM
- TGI (CCRF-CEM leukemia): 4.41 µM
- GI50 (RPMI-8226 leukemia): 2.62 µM
- TGI (RPMI-8226 leukemia): 15.3 µM
- GI50 (TK-10 renal): 2.88 µM
- TGI (TK-10 renal): 9.85 µM
- GI50 (SNB-19 CNS): 4.7 µM
- TGI (SNB-19 CNS): 35.8 µM
- GI50 (HL-60(TB) leukemia): 1.64 µM
- TGI (HL-60(TB) leukemia): 14.5 µM
- GI50 (MOLT-4 leukemia): 0.895 µM
- TGI (MOLT-4 leukemia): 11.1 µM
- GI50 (UO-31 renal): 1.77 µM
- TGI (UO-31 renal): 12.7 µM
- GI50 (T-47D breast): 0.424 µM
- TGI (T-47D breast): 5.36 µM
- GI50 (SN12C renal): 4.44 µM
- TGI (SN12C renal): 24.3 µM
- GI50 (SK-MEL-2 melanoma): 2.2 µM
- TGI (SK-MEL-2 melanoma): 6.05 µM
- GI50 (OVCAR-3 ovarian): 1.69 µM
- TGI (OVCAR-3 ovarian): 3.85 µM
- GI50 (K-562 leukemia): 1.09 µM
- TGI (K-562 leukemia): > 100 µM
- GI50 (OVCAR-5 ovarian): 1.78 µM
- TGI (OVCAR-5 ovarian): 3.76 µM
- GI50 (UACC-257 melanoma): 3.42 µM
- TGI (UACC-257 melanoma): 24.5 µM
- GI50 (MDA-MB-468 breast): 0.286 µM
- TGI (MDA-MB-468 breast): 0.838 µM
- GI50 (UACC-62 melanoma): 2.1 µM
- TGI (UACC-62 melanoma): 6.03 µM
- GI50 (OVCAR-8 ovarian): 2.44 µM
- TGI (OVCAR-8 ovarian): 6.53 µM
- GI50 (DU-145 prostate): 4.76 µM
- TGI (DU-145 prostate): 92.8 µM
- GI50 (A549 NSCLC): 2.09 µM
- TGI (A549 NSCLC): 7.09 µM
- GI50 (IGROV1 ovarian): 1.7 µM
- TGI (IGROV1 ovarian): 3.78 µM
- GI50 (NCI-H460 lung): 0.766 µM
- TGI (NCI-H460 lung): 4 µM
- GI50 (ACHN renal): 1.81 µM
- TGI (ACHN renal): 6.57 µM
- GI50 (CAKI-1 renal): 1.33 µM
- TGI (CAKI-1 renal): 6.39 µM
- GI50 (NCI-H226 lung): 2.51 µM
- TGI (NCI-H226 lung): 9.27 µM
- GI50 (HOP-92 NSCLC): 4.81 µM
- TGI (HOP-92 NSCLC): 24.4 µM
- GI50 (NCI/ADR-RES ovarian): 2.14 µM
- TGI (NCI/ADR-RES ovarian): 6.01 µM
- GI50 (KM12 colon): 0.0672 µM
- TGI (KM12 colon): 2 µM
- GI50 (M14 melanoma): 3.23 µM
- TGI (M14 melanoma): 26.1 µM
- GI50 (SK-MEL-5 melanoma): 1.88 µM
- TGI (SK-MEL-5 melanoma): 4.5 µM
- GI50 (BT-549 breast): 2.33 µM
- TGI (BT-549 breast): 6.65 µM
- GI50 (HT29 colon): 1.86 µM
- TGI (HT29 colon): 4.54 µM
- GI50 (HS 578T breast): 2.73 µM
- TGI (HS 578T breast): 8.74 µM
- GI50 (HCT-15 colon): 1.9 µM
- TGI (HCT-15 colon): 10.8 µM
- GI50 (MDA-MB-231 breast): 1.64 µM
- TGI (MDA-MB-231 breast): 3.86 µM
- GI50 (RXF 393 renal): 2.07 µM
- TGI (RXF 393 renal): 4.52 µM
- GI50 (MDA-MB-435): 1 µM
- TGI (MDA-MB-435): 14.1 µM
- GI50 (SK-MEL-28 melanoma): 3.09 µM
- TGI (SK-MEL-28 melanoma): 10.2 µM
- GI50 (MCF7 breast): 0.329 µM
- TGI (MCF7 breast): 7.58 µM
- GI50 (SF-539 CNS): 1.43 µM
- TGI (SF-539 CNS): 3.06 µM
- GI50 (HCT-116 colon): 1.68 µM
- TGI (HCT-116 colon): 11.7 µM
- GI50 (EKVX NSCLC): 0.775 µM
- TGI (EKVX NSCLC): 10.7 µM
- GI50 (NCI-H522 lung): 1.6 µM
- TGI (NCI-H522 lung): 5.1 µM
- GI50 (A498 renal): 3.46 µM
- TGI (A498 renal): 11.1 µM
- GI50 (NCI-H23 lung): 1.08 µM
- TGI (NCI-H23 lung): 3.79 µM
- GI50 (PC-3 prostate): 2.19 µM
- TGI (PC-3 prostate): 11.2 µM
- GI50 (786-0 renal): 2.42 µM
- TGI (786-0 renal): 7.45 µM
- GI50 (SR leukemia): 1.27 µM
- TGI (SR leukemia): 32.5 µM
- GI50 (MALME-3M melanoma): 2.32 µM
- TGI (MALME-3M melanoma): 7.2 µM
- GI50 (SF-295 CNS): 1.9 µM
- TGI (SF-295 CNS): 5.02 µM
- GI50 (SNB-75 CNS): 2.97 µM
- TGI (SNB-75 CNS): 7.93 µM
